Consider twelve compounds from ChEMBL document CHEMBL4038299, “Nitroimidazoles: Molecular Fireworks That Combat a Broad Spectrum of Infectious Diseases” (J Med Chem, 2017).

≈ marks a conversion by molar mass, not a printed value. Some results are limits rather than exact numbers.

Data set [1] has as its system Leishmania donovani. Nature of the data set: Antileishmanial activity against Leishmania donovani LV9 amastigotes infected in BALB/c mouse assessed as reduction in parasite burden at 200 mg/kg, po administered qd for 5 days. In kind it is functional. The conditions noted are these: 120 h.
Data set [2] has as its system Giardia intestinalis. Nature of the data set: In vivo antiparasitic activity against Giardia lamblia infected in human assessed as median efficacy at 2 g administered in adults as single dose. In kind it is functional, Giardia duodenalis.
For a further data set, the system named is Bacteroides fragilis. Nature of the data set: Antibacterial activity against Bacteroides fragilis ATCC 23745 after 24 hrs. In kind it is functional. The conditions noted are these: ATCC 23745, 24 h.
The subject of data set [3] is Giardia intestinalis. Nature of the data set: In vivo antiparasitic activity against Giardia lamblia infected in human assessed as median efficacy at 30 mg/kg administered in children as single dose. In kind it is functional, Giardia duodenalis.
Data set [4] deals with Helicobacter pylori. Nature of the data set: In vivo antibacterial activity against Helicobacter pylori infected in human administered bid for 7 days measured after 30 days post start of the treatment by endoscopic analysis. In kind it is functional.
Data set [5] relates to Trichomonas vaginalis. Nature of the data set: Antiparasitic activity against Trichomonas vaginalis clinical isolate after 48 hrs under aerobic conditions by inverted phase contrast microscopic analysis. Type of data set: functional.
The nature of data set [6]: Half life in plasma (unknown origin). In kind it is ADME, cell-free.
In data set [7] the test system is Leishmania donovani. Nature of the data set: Antileishmanial activity against Leishmania donovani LV9 amastigotes infected in mouse peritoneal macrophages after 72 hrs. The conditions noted are these: LV9, 72 h. Type of data set: functional.
For data set [8], the system named is Leishmania donovani. Nature of the data set: Antileishmanial activity against Leishmania donovani HU3 infected in po dosed BALB/c mouse administered for 5 consecutive days. Type of data set: functional.
The subject of data set [9] is Helicobacter pylori. Nature of the data set: Antibacterial activity against resistant Helicobacter pylori. Type of data set: functional.
For data set [10], the system named is Giardia intestinalis. Nature of the data set: In vivo antiparasitic activity against Giardia lamblia infected in human at 2000 to 2400 mg administered as single dose. Type of data set: functional, Giardia duodenalis.
The nature of data set [11]: Drug excretion in po dosed human watery feces. The conditions noted are these: in vivo. Type of data set: ADME, organism-based.
The nature of data set [12]: Drug excretion in po dosed human feces. In kind it is ADME, organism-based. The conditions noted are these: in vivo.
The test system of data set [13] is Giardia intestinalis. Nature of the data set: In vivo antiparasitic activity against Giardia lamblia infected in human at 250 mg administered 2 to 3 times per day daily for 5 to 10 days. Type of data set: functional, Giardia duodenalis.
The test system of data set [14] is Helicobacter pylori. Nature of the data set: Antibacterial activity against Helicobacter pylori after 72 hrs by E-test. In kind it is functional.
Another data set concerns Clostridioides difficile. Nature of the data set: Antibacterial activity against Clostridium difficile. Type of data set: functional.
The test system of data set [15] is Trichomonas vaginalis. Nature of the data set: Antiparasitic activity against Trichomonas vaginalis BRIS/92/STDL/B7268 clinical isolate after 48 hrs under anaerobic condition. In kind it is functional.
Another data set relates to Entamoeba histolytica. Nature of the data set: Antiparasitic activity against Entamoeba histolytica clinical isolate after 24 hrs under anaerobic cinditions. In kind it is functional.
For data set [16], the system named is Helicobacter pylori. Nature of the data set: Antibacterial activity against susceptible Helicobacter pylori. Type of data set: functional.
The test system of data set [17] is Leishmania donovani. Nature of the data set: Antileishmanial activity against Leishmania donovani LV9 promastigotes after 72 hrs by resazurin-based fluorescence assay. Type of data set: functional. To be noted: LV9, 72 h. On the technique in general: Resazurin is reduced to fluorescent resorufin, in cell work by metabolically active cells.
The subject of data set [18] is Leishmania donovani. Nature of the data set: Antileishmanial activity against Leishmania donovani LV9 amastigotes infected in BALB/c mouse peritoneal macrophages after 72 hrs by resazurin-based fluorescence assay. Type of data set: functional. To be noted: LV9, 72 h.
Data set [19] deals with Mycobacterium tuberculosis. Nature of the data set: Antimycobacterial activity against Mycobacterium tuberculosis. In kind it is functional.
Data set [20] concerns Trypanosoma cruzi. Nature of the data set: Antiparasitic activity against Trypanosoma cruzi infected in human assessed as cure rate under acute condition. Type of data set: functional.
Data set [21] has as its system Trypanosoma cruzi. Nature of the data set: Antiparasitic activity against Trypanosoma cruzi infected in human assessed as cure rate under chronic condition. Type of data set: functional.
Data set [22] relates to Leishmania donovani. Nature of the data set: Antileishmanial activity against Leishmania donovani LV9 amastigotes infected in po dosed BALB/c mouse assessed as reduction in parasite burden dosed on day 7 post-infection administered bid for 5 to 10 days. Type of data set: functional.

`CSc1ccc(OCc2ncc([N+](=O)[O-])n2C)cc1` [FEXINIDAZOLE]: the inhibition in vivo (commonly the share of the control response that was lost under treatment) at 200 mg/kg in the data set on Leishmania donovani [1] turned out to be 98%.

Consider `Cc1ncc([N+](=O)[O-])n1CC(C)O` (centres undefined) [SECNIDAZOLE], for which the Efficacy with Giardia intestinalis [2] and in the data set with Giardia intestinalis [3] was 80 - 100% in each case. In the data set on Bacteroides fragilis, the MIC (usually the lowest concentration that inhibits growth of the organism) fell in the range of 0.8 to 3.7 µM (≈ 0.148 to 0.685 µg/mL).

On to `CCS(=O)(=O)CCn1c([N+](=O)[O-])cnc1C` [TINIDAZOLE], for which the Activity with Helicobacter pylori [4] is over 90%. The compound further returned an MLC in the data set on Trichomonas vaginalis [5] of 1015 µM (≈ 251 µg/mL). For the same compound, the Efficacy in the data set on Giardia intestinalis [2] is given as 92%. Also, the half-life – broadly, the time needed for the level to fall by half in the phase considered – in [6] lay within 12 to 14 h. Besides, the MIC with Bacteroides fragilis fell in the range of 0.8 to 3.7 µM (≈ 0.198 to 0.915 µg/mL).

With `Cn1c([N+](=O)[O-])cnc1COc1ccc(S(C)(=O)=O)cc1` [FEXINIDAZOLE SULFONE], the EC50 (in general, the concentration at which the effect is half-maximal) with Leishmania donovani [7] was found to be 5300 nM.

In the data set with Leishmania donovani [8], `C[C@]1(COc2ccc(OC(F)(F)F)cc2)Cn2cc([N+](=O)[O-])nc2O1` gave an ED90 of 3.7 mg/kg.

`CCCCCCCCCCCCCCCCOP(=O)([O-])OCC[N+](C)(C)C` [MILTEFOSINE]: it took 3300 nM to reach a half-maximal effect with Leishmania donovani [7] (EC50).

Regarding `Cc1ncc([N+](=O)[O-])n1CCO` [METRONIDAZOLE], the MIC was over 8 µg/mL in the data set on Helicobacter pylori [9], at least 256 µg/mL in the data set on Helicobacter pylori [14], 12.5 to 25 µM (≈ 2.14 to 4.28 µg/mL) in the data set with Entamoeba histolytica and 0.25 to 2 µg/mL (≈ 1.46 to 11.7 µM) with Helicobacter pylori [16]. In addition, the Efficacy with Giardia intestinalis [10] came to 48%; in the data set on Giardia intestinalis [13] it was 88%. The results for the Drug excretion in [11] and in data set [12] were 9.3 µg/g and 1.2 µg/g, respectively. In addition, the MLC worked out at 2618 µM (≈ 448 µg/mL) in the data set on Trichomonas vaginalis [5] and 4.25 µg/mL (≈ 24.8 µM) in the data set on Trichomonas vaginalis [15]. Moreover, the MIC90 – broadly, an inhibitory concentration at the 90% level, which refers to growth in some studies and to a panel of isolates in others – in the data set with Clostridioides difficile was in the range of 0.2 to 2 µg/mL (≈ 1.17 to 11.7 µM).

In the data set with Bacteroides fragilis, `Cc1ncc([N+](=O)[O-])n1CCc1ccncc1` [PANIDAZOLE] yielded an MIC of 0.8 to 3.7 µM (≈ 0.186 to 0.859 µg/mL).

Consider `O=[N+]([O-])c1cn2c(n1)OC[C@H](OCc1ccc(OC(F)(F)F)cc1)C2`, for which the results for the EC50 in the data set on Leishmania donovani [17] and with Leishmania donovani [18] were 160 nM and 930 nM, respectively. Besides, the MIC in [19] is over 100 µM.

As to `O=C(Cn1ccnc1[N+](=O)[O-])NCc1ccccc1` [BENZNIDAZOLE], the Activity in the data set with Trypanosoma cruzi [20] turned out to be 76%; with Trypanosoma cruzi [21], 8%.

For `C[C@]1(COc2ccc(N3CCC(Oc4ccc(OC(F)(F)F)cc4)CC3)cc2)Cn2cc([N+](=O)[O-])nc2O1` [DELAMANID], in the data set on Leishmania donovani [7], the EC50 turned out to be 87 nM. For the same compound, in the data set on Leishmania donovani [22], the ED50 – broadly, the midpoint of the dose-response relation – turned out to be 7.3 mg/kg and the ED90 came out at 21.5 mg/kg.

Take `Cc1ncc([N+](=O)[O-])n1CC(O)CCl` (centres undefined) [ORNIDAZOLE]: the Efficacy with Giardia intestinalis [2] is 92 - 100%. The compound further displayed an MIC against Bacteroides fragilis of 0.8 to 3.7 µM (≈ 0.176 to 0.813 µg/mL).
